What follows are molecules tested against T1, Vesicular acetylcholine transporter (Homo sapiens, UniProt Q16572) (assay: Displacement of [3H]vesamicol from human VAChT transfected in PC12 cell line).
T1 sequence (Q16572 whole entry): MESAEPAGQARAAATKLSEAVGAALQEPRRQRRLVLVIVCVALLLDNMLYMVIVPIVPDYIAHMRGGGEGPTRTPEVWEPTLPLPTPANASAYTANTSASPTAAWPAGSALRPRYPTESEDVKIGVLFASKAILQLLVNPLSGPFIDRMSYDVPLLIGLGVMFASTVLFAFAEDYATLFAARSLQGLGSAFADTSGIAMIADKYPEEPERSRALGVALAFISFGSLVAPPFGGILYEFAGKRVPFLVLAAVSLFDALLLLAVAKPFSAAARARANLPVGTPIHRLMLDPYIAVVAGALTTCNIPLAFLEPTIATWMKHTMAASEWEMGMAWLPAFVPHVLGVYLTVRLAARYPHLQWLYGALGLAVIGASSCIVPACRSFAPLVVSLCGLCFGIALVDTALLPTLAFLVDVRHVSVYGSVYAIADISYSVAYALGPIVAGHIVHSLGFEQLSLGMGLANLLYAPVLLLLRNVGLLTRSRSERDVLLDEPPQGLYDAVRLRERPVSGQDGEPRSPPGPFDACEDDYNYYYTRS
Type: cell-based, PC-12

Row | Structure (SMILES) | IC50
1 | OC1CNCCC1N1CCN(c2ccccc2)CC1 (configuration not stated) | 0.1 µM
2 | OC1CN(Cc2ccccc2Br)CCC1N1CCN(c2ccccc2)CC1 (configuration not stated) | 0.011 µM
3 | OC1CN(Cc2ccccc2)CCC1N1CCN(c2ccccc2)CC1 (configuration not stated) | 0.057 µM
4 | OC1CCNCC1N1CCN(c2ccccc2)CC1 (configuration not stated) | > 0.1 µM
5 | OC1CCN(Cc2cccc(Br)c2)CC1N1CCN(c2ccccc2)CC1 (configuration not stated) | 0.046 µM
6 | OC1CCN(Cc2ccccc2Br)CC1N1CCN(c2ccccc2)CC1 (configuration not stated) | 0.047 µM
7 | OC1CN(Cc2ccc(Br)cc2)CCC1N1CCN(c2ccccc2)CC1 (configuration not stated) | > 0.1 µM
8 | OC1CN(Cc2cccc(Br)c2)CCC1N1CCN(c2ccccc2)CC1 (configuration not stated) | 0.066 µM
9 | OC1CCN(Cc2ccc(Br)cc2)CC1N1CCN(c2ccccc2)CC1 (configuration not stated) | > 0.1 µM

More lines, now with the values ahead:

Row | IC50 | Structure (SMILES)
10 | > 1 µM | C#CCN1CCC(N2CCN(c3ccccc3)CC2)C(O)C1 (configuration not stated)
11 | > 1 µM | CCN1CCC(O)C(N2CCN(c3ccccc3)CC2)C1 (configuration not stated)
12 | > 0.1 µM | C=CCN1CCC(N2CCN(c3ccccc3)CC2)C(O)C1 (configuration not stated)
13 | > 0.1 µM | C=C(C)CN1CCC(N2CCN(c3ccccc3)CC2)C(O)C1 (configuration not stated)
14 | > 0.1 µM | OC1CCN(C/C=C/I)CC1N1CCN(c2ccccc2)CC1 (configuration not stated)
15 | > 0.1 µM | C=C(C)CN1CCC(O)C(N2CCN(c3ccccc3)CC2)C1 (configuration not stated)
16 | > 0.1 µM | C=CCN1CCC(O)C(N2CCN(c3ccccc3)CC2)C1 (configuration not stated)
17 | 0.1 µM | C/C=C/CN1CCC(N2CCN(c3ccccc3)CC2)C(O)C1 (configuration not stated)
18 | > 0.1 µM | C/C=C/CN1CCC(O)C(N2CCN(c3ccccc3)CC2)C1 (configuration not stated)
19 | > 1 µM | CCN1CCC(N2CCN(c3ccccc3)CC2)C(O)C1 (configuration not stated)
20 | > 0.1 µM | OC1CN(C/C=C/I)CCC1N1CCN(c2ccccc2)CC1 (configuration not stated)
21 | > 0.1 µM | OC1CCN(Cc2ccccc2)CC1N1CCN(c2ccccc2)CC1 (configuration not stated)
22 | > 0.1 µM | C#CCN1CCC(O)C(N2CCN(c3ccccc3)CC2)C1 (configuration not stated)

Source: ChEMBL document CHEMBL1147695, “Synthesis and in vitro evaluation of N-substituted aza-trozamicol analogs as vesicular acetylcholine transporter ligands” (Bioorg Med Chem Lett, 2006)
